# Tested on: 324938-238-R-J1-PDC complex spheroid viability
# Test: Anticancer human tumor 324938-238-R-J1-PDC patient-derived bladder carcinoma cell line growth inhibition
# Details: for IC50: curve of first compound; for viability, T/C: stronger effect = lower value
# Excerpt: Multicellular complex tumor spheroid response to LSD1 Inhibitor Iadademstat in combination with a variety of drugs and investigational agents in selected tumor cell lines
# The current study was undertaken to assess response to LSD1 inhibitors in combination with standard-of-care drugs and investigational agents in solid tumor complex spheroid models as well as in the K-562 leukemia. Complex spheroids include a stromal component modeled by human endothelial cells (HUVEC) and fibroblasts modeled by human mesenchymal stem cells (MSCs). The concentration ranges selected for each drug and investigational agent were based upon clinically achievable concentrations if the clinical Cmax of the agent was known.
# Compounds. The drugs and investigational agents used in this study are listed on Table 1. All of the agents used, including staurosporine (NSC755774) and gemcitabine (NSC613327), were obtained from the Developmental Therapeutics Program, NCI. FDA-approved anticancer drugs are available from the NCI at http://dtp.nci.nih.gov/branches/dscb/oncology_drugset_explanation.html. Drugs and investigational agents were >95% pure by proton nuclear magnetic resonance (NMR) and liquid chromatography/mass spectrometry (LC/MS). Stock solutions were prepared at 400x in DMSO, stored at -70 degrees C, and diluted in fresh medium prior to their use. The final concentration of DMSO in cell culture wells never exceeded 0.25% (v/v). The FDA-approved anticancer drug set is available from the Developmental Therapeutics Program at https://dtp.cancer.gov/organization/dscb/obtaining/available_plates.htm. All drugs and investigational agents were tested over a range starting from a high concentration at or near the clinical Cmax and decreasing in half-log increments. If the clinical Cmax for an agent had not been determined, the highest concentration tested was 10 microM.
# Cell Lines. The patient-derived cancer cell (PDC) lines: 292921-168-R-J2-PDC, K24384-001-R-PDC, and 521955-158-R2-J5-PDC pancreatic carcinomas, 556581-035-R-J1 ovarian carcinoma, 324938-238-R-J1-PDC, 855422-203-R-J1-PDC and 883617-216-R-J1-PDC urothelial bladder carcinomas, 743489-274-T-PDC renal cell carcinoma, 138582-R-J1 Merkel cell tumor, K60290-347-R-J1 and K57222-313-R-J1-PDC glioblastomas, 653999-131-R-J2-PDC, LG0703-F948-PDC, and 349418-098-R-PDC non-small cell lung carcinomas, 885512-296-R-J2-PDC, 171881-019-R-J1-PDC breast carcinomas and 186277-243-T-J2-PDC and 233499-124-R-J2-PDC colon carcinomas were obtained from the NCI Patient-Derived Models Repository (PDMR, https://pdmr.cancer.gov). The established cell lines NCI/ADR-RES (RRID:CVCL_14520 and OVCAR-5 (RRID:CVCL_1628) ovarian carcinomas, 786-O (RRID:CVCL_1051) and A498 (RRID:CVCL_A498) renal cell carcinoma, NCI-H211 (ATCC, cat. CRL-5824; RRID:CVCL_1529), NCI-H196 (ATCC, cat. CRL-5823, RRID:CVCL_1509), SW 1271 (ATCC, cat. CRL-2177, RRID:CVCL_1716) and NCI-H1876 (ATCC, cat. CRL-5902, RRID:CVCL_1503) small cell lung carcinomas, MDA-MB-231 (RRID:CVCL_0062) and MDA-MB-468 (RRID:CVCL_0419)breast carcinomas (10-12). Pooled donor human umbilical vein endothelial cells (HUVEC, Lonza, cat. CC-2519) and human mesenchymal stem cells (hMSC, Lonza, cat. PT-2501) were purchased from Lonza (Walkersville, MD).
# Cell Culture. All cells were maintained in an incubator at 37 degrees C and 5% CO2 with 95% humidity. The PDC lines were cultured according to standard operating procedures established by the NCI PDMR (https://pdmr.cancer.gov). Briefly all PDCs were thawed and cultured in Matrigel-coated flasks prepared with a working solution of 1X Ham's F-12 nutrient mix, without supplementation (Invitrogen, Waltham, MA, cat. 11765054), 100 U/mL penicillin-streptomycin (Invitrogen, cat. 15140122), and 2.5% Matrigel (Corning Inc., Corning, NY, cat. 354248) for the first three passages. […]
# [1] = second compound 0.1 µM, first compound 0.00949 µM
# [2] = second compound 0.1 µM, first compound 0.03 µM
# [3] = second compound 0.1 µM, first compound 0.0949 µM
# [4] = second compound 0.1 µM, first compound 0.3 µM
# [5] = second compound 0.316 µM, first compound 0.00949 µM
# [6] = second compound 0.316 µM, first compound 0.03 µM
# [7] = second compound 0.316 µM, first compound 0.0949 µM
# [8] = second compound 0.316 µM, first compound 0.3 µM
# [9] = second compound 1 µM, first compound 0.00949 µM
# [10] = second compound 1 µM, first compound 0.03 µM
# [11] = second compound 1 µM, first compound 0.0949 µM
# [12] = second compound 1 µM, first compound 0.3 µM
# [13] = second compound 3.16 µM, first compound 0.00949 µM
# [14] = second compound 3.16 µM, first compound 0.03 µM
# [15] = second compound 3.16 µM, first compound 0.0949 µM
# [16] = second compound 3.16 µM, first compound 0.3 µM
# [17] = second compound 10 µM, first compound 0.00949 µM
# [18] = second compound 10 µM, first compound 0.03 µM
# [19] = second compound 10 µM, first compound 0.0949 µM
# [20] = second compound 10 µM, first compound 0.3 µM
# 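Also: spheroids also contain HUVEC and human MSCs and agents combined with iadademstat; spheroids exposed to agents for 7 days before readout.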
structure (smiles),measurement,setting,value
CC[C@@]1(O)C(=O)OCc2c1cc1n(c2=O)Cc2cc3c(CN(C)C)c(O)ccc3nc2-1 + NC1CC1c1ccc(-c2cccc(O)c2)cc1,IC50,second compound 0.1 µM,1.32 nM
same,IC50,second compound 0.316 µM,1.13 nM
same,IC50,second compound 1 µM,1.38 nM
same,IC50,second compound 3.16 µM,1.22 nM
same,IC50,second compound 10 µM,1.17 nM
same,"viability, T/C","second compound 0.1 µM, first compound 0.000316 µM",82.5%
same,"viability, T/C","second compound 0.1 µM, first compound 0.001 µM",57%
same,"viability, T/C","second compound 0.1 µM, first compound 0.00316 µM",27%
same,"viability, T/C","second compound 0.1 µM, first compound 0.01 µM",7.09%
same,"viability, T/C","second compound 0.1 µM, first compound 0.0316 µM",7.47%
same,"viability, T/C","second compound 0.1 µM, first compound 0.1 µM",8.37%
same,"viability, T/C","second compound 0.316 µM, first compound 0.000316 µM",68.2%
same,"viability, T/C","second compound 0.316 µM, first compound 0.001 µM",52.5%
same,"viability, T/C","second compound 0.316 µM, first compound 0.00316 µM",25.4%
same,"viability, T/C","second compound 0.316 µM, first compound 0.01 µM",6.5%
same,"viability, T/C","second compound 0.316 µM, first compound 0.0316 µM",7.53%
same,"viability, T/C","second compound 0.316 µM, first compound 0.1 µM",6.02%
same,"viability, T/C","second compound 1 µM, first compound 0.000316 µM",67.8%
same,"viability, T/C","second compound 1 µM, first compound 0.001 µM",58.2%
same,"viability, T/C","second compound 1 µM, first compound 0.00316 µM",27.7%
same,"viability, T/C","second compound 1 µM, first compound 0.01 µM",6.31%
same,"viability, T/C","second compound 1 µM, first compound 0.0316 µM",6.22%
same,"viability, T/C","second compound 1 µM, first compound 0.1 µM",8.13%
same,"viability, T/C","second compound 3.16 µM, first compound 0.000316 µM",69.7%
same,"viability, T/C","second compound 3.16 µM, first compound 0.001 µM",53.6%
same,"viability, T/C","second compound 3.16 µM, first compound 0.00316 µM",28.6%
same,"viability, T/C","second compound 3.16 µM, first compound 0.01 µM",7%
same,"viability, T/C","second compound 3.16 µM, first compound 0.0316 µM",5.72%
same,"viability, T/C","second compound 3.16 µM, first compound 0.1 µM",6.54%
same,"viability, T/C","second compound 10 µM, first compound 0.000316 µM",66.1%
same,"viability, T/C","second compound 10 µM, first compound 0.001 µM",52.7%
same,"viability, T/C","second compound 10 µM, first compound 0.00316 µM",28.8%
same,"viability, T/C","second compound 10 µM, first compound 0.01 µM",10.2%
same,"viability, T/C","second compound 10 µM, first compound 0.0316 µM",8.64%
same,"viability, T/C","second compound 10 µM, first compound 0.1 µM",9.59%
COc1cc(C2c3cc4c(cc3C(OC3OC5COC(C)OC5C(O)C3O)C3COC(=O)C23)OCO4)cc(OC)c1O (stereo not given) + NC1CC1c1ccc(-c2cccc(O)c2)cc1,IC50,second compound 0.1 µM,61.7 nM
same,IC50,second compound 0.316 µM,60.3 nM
same,IC50,second compound 1 µM,45.8 nM
same,IC50,second compound 3.16 µM,46.5 nM
same,IC50,second compound 10 µM,38.2 nM
same,"viability, T/C",[1],82.3%
same,"viability, T/C",[2],74.6%
same,"viability, T/C",[3],35.1%
same,"viability, T/C",[4],18.9%
same,"viability, T/C","second compound 0.1 µM, first compound 0.949 µM",20.9%
same,"viability, T/C","second compound 0.1 µM, first compound 3 µM",10.6%
same,"viability, T/C",[5],69.8%
same,"viability, T/C",[6],67.1%
same,"viability, T/C",[7],38.4%
same,"viability, T/C",[8],22.2%
same,"viability, T/C","second compound 0.316 µM, first compound 0.949 µM",17.6%
same,"viability, T/C","second compound 0.316 µM, first compound 3 µM",8.16%
same,"viability, T/C",[9],67.9%
same,"viability, T/C",[10],60%
same,"viability, T/C",[11],34%
same,"viability, T/C",[12],19.6%
same,"viability, T/C","second compound 1 µM, first compound 0.949 µM",19.2%
same,"viability, T/C","second compound 1 µM, first compound 3 µM",7.9%
same,"viability, T/C",[13],74%
same,"viability, T/C",[14],59%
same,"viability, T/C",[15],35.6%
same,"viability, T/C",[16],23.3%
same,"viability, T/C","second compound 3.16 µM, first compound 0.949 µM",17.3%
same,"viability, T/C","second compound 3.16 µM, first compound 3 µM",11.7%
same,"viability, T/C",[17],73.5%
same,"viability, T/C",[18],54.8%
same,"viability, T/C",[19],34.3%
same,"viability, T/C",[20],27.5%
same,"viability, T/C","second compound 10 µM, first compound 0.949 µM",16.8%
same,"viability, T/C","second compound 10 µM, first compound 3 µM",11.7%
Nc1ccn(C2OC(CO)C(O)C2(F)F)c(=O)n1 (stereo not given) + NC1CC1c1ccc(-c2cccc(O)c2)cc1,IC50,second compound 0.1 µM,< 0.949 nM
same,IC50,second compound 0.316 µM,< 0.949 nM
same,IC50,second compound 1 µM,< 0.949 nM
same,IC50,second compound 3.16 µM,< 0.949 nM
same,IC50,second compound 10 µM,< 0.949 nM
same,"viability, T/C","second compound 0.1 µM, first compound 0.000949 µM",11.1%
same,"viability, T/C","second compound 0.1 µM, first compound 0.003 µM",8.09%
same,"viability, T/C",[1],6.87%
same,"viability, T/C",[2],6.29%
same,"viability, T/C",[3],6.35%
same,"viability, T/C",[4],5.04%
same,"viability, T/C","second compound 0.316 µM, first compound 0.000949 µM",10.9%
same,"viability, T/C","second compound 0.316 µM, first compound 0.003 µM",7.27%
same,"viability, T/C",[5],5.74%
same,"viability, T/C",[6],5.98%
same,"viability, T/C",[7],5.39%
same,"viability, T/C",[8],5.59%
same,"viability, T/C","second compound 1 µM, first compound 0.000949 µM",11%
same,"viability, T/C","second compound 1 µM, first compound 0.003 µM",7.32%
same,"viability, T/C",[9],5.8%
same,"viability, T/C",[10],6.74%
same,"viability, T/C",[11],5.16%
same,"viability, T/C",[12],4.64%
same,"viability, T/C","second compound 3.16 µM, first compound 0.000949 µM",10.4%
same,"viability, T/C","second compound 3.16 µM, first compound 0.003 µM",6.79%
same,"viability, T/C",[13],7.61%
same,"viability, T/C",[14],5.95%
same,"viability, T/C",[15],5.45%
same,"viability, T/C",[16],5.23%
same,"viability, T/C","second compound 10 µM, first compound 0.000949 µM",15.8%
same,"viability, T/C","second compound 10 µM, first compound 0.003 µM",11.2%
same,"viability, T/C",[17],10.4%
same,"viability, T/C",[18],7.49%
same,"viability, T/C",[19],5.31%
same,"viability, T/C",[20],5.65%

# From PubChem BioAssay AID1918935 (Molecular Pharmacology Branch, DTP, NCI, 2023)
